Data from patent US12173039B1, “TPL2 inhibiting agents, uses thereof, and detection of TPL2” (Washington University, priority 2021, dated 2024).

Columns and labels:
[1] = patients with refractory hematologic malignancies; cited from earlier work
IL1B = assay: qRT-PCR of IL1B in HEK T/tH KRAS^G12V cells; type: cell-based, human; conditions: 16 hours
Protocol: Total RNA was isolated using RNAzol RT (Sigma), cDNA was generated using High Capacity cDNA reverse transcription kit (Thermo Fisher Scientific, 4368814) and qPCR was performed using SYBR-Green reagent (Applied Biosystems, cat #4309155). All experiments were performed in biological duplicates or triplicates (n=2,3).

[2] = system: serum-response element (SRE); assay: Serum-response element (SRE) luciferase reporter assay; type: cell-based, human; conditions: for SRE reporter activity (MAPK cascades): KRAS-mutant HPAC, MIA Paca-2, and Pa01C cells
Protocol: Cells stably expressing plasmid encoding serum-response-element (SRE) or NFKB promoter driven Firefly luciferase and constitutive Renilla luciferase were seeded at equal density per well and treatment was initiated the next day for 16-24 duration. Alternatively, 293T reporter cells were transfected in duplicate or triplicate with 1 μg of appropriate plasmid DNA. Medium was replaced 16-18 hours later and at 48 hours post-transfection reporter activity was measured using Dual-Glo® Luciferase Assay System. Data was acquired using SpectraMax i3Microplate Reader and analysis was performed by calculating ratio of firefly:renilla. Values were normalized to control and graphed using GraphPad Prism v7/8 software.

Hs695T cells = assay: Drug response and viability assay, Hs695T; type: cell-based, human
Protocol: Cells were seeded at 1500-2500 cells per well in triplicates, in 96 well format. Next day, appropriate inhibitor was added in serial dilution from 1.00×102 μM or indicated single doses. Vehicle (DMSO) was added to match volume of inhibitor used for highest concentration. After 96-120 hours, 5× AlamarBlue® reagent (resazurin sodium salt, Sigma) was added to wells and incubated for 2-4 hours. Fluorescence at 585 nm (excitation 555 nm) was measured by SpectraMax i3 Microplate Reader. Raw values were normalized to vehicle, analyzed and graphed using GraphPad Prism v7/8 software.

[3] = system: TLR9 and p-IRAK4 interaction; assay: Proximity ligation assay (PLA); type: cell-based, human; conditions: 3 PDAC lines; 10 μM, 16 hours
Protocol: PLA was performed using Duolink® in situ Red Starter Kit Mouse/Rabbit (DUO92101, Sigma) per manufacturer's protocol. Briefly, cells were seeded on cover slips in 6 well plate at ˜50% confluency per well. Next day cells were treated with SN-38 (10 μM) and 16 hours later PLA was performed using p-IRAK4 (ABNOVA) and TLR9 (CST) primary antibodies. Stained cells were imaged using Nikon C2+ fluorescent microscope paired with NIS-Element software. Number of puncta per field was quantitated for six 400× fields per condition using Find Maxima tool in ImageJ software. Data was exported and graphed in GraphPad Prism v8.

p-MEK, p-ERK, and p-RSK = assay: Immunoblots of MAPK pathway markers in human cell lines; type: cell-based
Protocol: (§1) Standard immunoblotting procedure was followed. Cells were washed twice with ice-cold 1×PBS and lysed with ice-cold triton-X lysis buffer (25 mM Tris, pH 7.4, 150 mM NaCl, 5 mM EDTA, 1% Triton-X) containing 1× protease (10 μg mL-1 leupeptin, 700 ng mL-1 pepstatin, 170 ng mL-1 aprotinin, 1 mM PMSF) and phosphatase (10 mM NaF, 1 mM Na3VO4, 1 mM Na4P2O^7, 5 mM Na b-glycerophosphate) inhibitors. Lysates were quantified by Bradford assay (Thermo Scientific), normalized for concentration, and reduced and denatured with 6×SDS sample buffer followed by boiling for 5 minutes. 20-40 μg of protein per sample was resolved by SDS-PAGE, blotted on PVDF membrane and probed with primary antibodies (Cell Signaling Technologies: p-ERK1/2 (#4370), p-MEK1/2 (#9154), ERK1/2 (#4695), MEK1/2 (#8727), p-p105 (#4806), NFS2KB1 p105/p50 (#3035), p-IRAK4 (#11927), IRAK4 (#4363), ubiquitin (#43124), anti-HA (#3724), p-p90RSK (#11989), RSK1/2/3 (#9355), p-TPL2 (#4491), PARP (#9532), p-B-RAF S445 (#2696), BRAF (#9433S). Santa Cruz Biotechnology: GAPDH (#sc-32233), p-p65 S536 (#sc101752). Thermo Fisher Scientific: p-55 TPL2 (#PA5-36635). EMD Millipore: IRAK4 (#07-418). R&D systems: TPL2/MAP3K8 (#MAB4586). Novus Biologicals: anti-AU1 (#NB600-453). Abcam: p-p65 S276 (#ab194726)). Membranes were incubated with appropriate HRP-conjugated secondary antibodies (anti-mouse or anti-rabbit, (1:5000 dilution), Jackson Laboratory) and imaged using chemiluminescent substrate. Additional steps for immunoprecipitation include incubation of soluble fraction lysate with anti-HA magnetic beads (Thermo Scientific cat #88837) overnight at 4° C., washing, and elution using 1×SDS sample buffer and boiling as mentioned in manufacturer's protocol.

p-p105, p-p65 = assay: Immunoblots of NF-κB markers in PDAC cells; type: cell-based, human; conditions: PDAC lines after chemotherapy
Protocol: as §1

For `Cc1cc(-c2nc(C(=O)Nc3cc4oc(N5CCOCC5)nc4nc3N3CC[C@@H](O)C3)co2)ccn1` [CA-4948, N-[5-[(3R)-3-hydroxypyrrolidin-1-yl]-2-morpholin-4-yl-[1,3]oxazolo[4,5-b]pyridin-6-yl]-2-(2-methylpyridin-4-yl)-1,3-oxazole-4-carboxamide], the “patients developing grade 1-2 neutropenia” value [1] is given as 23% and the “tolerability in clinical trial” value [1] is given as “rather well tolerated”.
With `CS(=O)(=O)N1CCN(Cc2cc3nc(-c4cccc5[nH]ncc45)nc(N4CCOCC4)c3s2)CC1` [GDC-0941] the “IL-1B production (IL1B expression by qRT-PCR)” value (IL1B) was “no effect”.
For `O=C(Nc1cc(C(F)(F)F)cc(C(F)(F)F)c1)c1cc(Cl)ccc1O` [IMD-0354], the “SRE-driven luciferase reporter activity” value ([2]; HPAC cells) was “dose-dependent suppression”.
In the case of `CCCS(=O)(=O)Nc1ccc(F)c(C(=O)c2c[nH]c3ncc(-c4ccc(Cl)cc4)cc23)c1F` [PLX4032], the viability (Hs695T cells) is reported as “modest growth suppressive effect”.
In the case of `CCCS(=O)(=O)Nc1ccc(F)c(C(=O)c2c[nH]c3ncc(Cl)cc23)c1F` [PLX-4720], the “SRE reporter activity (MAPK cascades)” value [2] is reported as “paradoxically hyperactivate”.
With `CCc1c2c(nc3ccc(O)cc13)-c1cc3c(c(=O)n1C2)COC(=O)[C@]3(O)CC` [SN-38] the “TLR9 and p-IRAK4 interaction” value [3] was “markedly increased”, the “induction of p-ERK, p-MEK, p-RSK, p-TPL2 and p-IRAK4” value (p-MEK, p-ERK, and p-RSK; multiple PDAC lines, 10 μM, 16 hours, compared with 4 other chemotherapeutic agents) was “most potent in inducing” and the “NF-κB induction (p-p105)” value (p-p105, p-p65) was “also induced”.
In the case of `CC(C)(C)c1nc(-c2cccc(NS(=O)(=O)c3c(F)cccc3F)c2F)c(-c2ccnc(N)n2)s1` [dabrafenib], the “SRE reporter activity (MAPK cascades)” value [2] is reported as “paradoxically hyperactivate”.
For `CC(C)Nc1cc(-c2c[nH]c(C(=O)N[C@H](CO)c3cccc(Cl)c3)c2)c(Cl)cn1` [ulixertinib], the “IL-1B production (IL1B expression by qRT-PCR)” value (IL1B) was “significantly abrogated”.
For “recombinant hIL-1B: recombinant human IL-1B”, the “p-IRAK4, p-TPL2, p-MEK, p-ERK, and p-RSK” value (p-MEK, p-ERK, and p-RSK; HEK T/H, HPAC, and Pa01C cells, 100 ng/ml) was “upregulated”.
